Reference: patent publication US20230040909A1 (priority 2019, published 2023)
Values after ≈ are worked out from the molar mass of the structure shown. Like-named read-outs stand apart in the source and are kept apart here.

What was measured:
[1] = tested on: M. tb H37Rv; test: microbe, parasite or virus in culture; format: cell-based, Mycobacterium tuberculosis; conditions: for MIC: Mycobacterium tuberculosis, H37RV, read-out: M. tb H37Rv: MIC-MABA
[2] = tested on: VERO Cell; test: VERO cell cytotoxicity; format: cell-based
Description: (§1) The procedures described in Falzari 2005 were used to generate the data shown in column 2 of Table 4.

[3] = tested on: Mycobacterium abscessus; test: M. ab_ATCC MIC MHII; format: cell-based; conditions: for MIC: Mycobacteroides abscessus, read-out: M. ab_ATCC: MIC MHII: MIC
Description: The procedure described in Franz 2017 was used to generate the data shown in column 5 of Table 4.

[4] = target: hKCNQ1/MinK (Homo sapiens, UniProt P51787); test: biochemical; format: biochemical
[5] = target: hNav1.5 Peak (Homo sapiens, UniProt Q14524); test: In vitro assessment of ion channels: hNav1.5 Peak; format: biochemical
[6] = target: hNav1.5 Late (Homo sapiens, UniProt Q14524); test: In vitro assessment of ion channels: hNav1.5 Late; format: biochemical
[7] = target: hCav1.2 (Homo sapiens, UniProt Q13936); test: biochemical
Chain of hCav1.2 (Q13936 whole entry): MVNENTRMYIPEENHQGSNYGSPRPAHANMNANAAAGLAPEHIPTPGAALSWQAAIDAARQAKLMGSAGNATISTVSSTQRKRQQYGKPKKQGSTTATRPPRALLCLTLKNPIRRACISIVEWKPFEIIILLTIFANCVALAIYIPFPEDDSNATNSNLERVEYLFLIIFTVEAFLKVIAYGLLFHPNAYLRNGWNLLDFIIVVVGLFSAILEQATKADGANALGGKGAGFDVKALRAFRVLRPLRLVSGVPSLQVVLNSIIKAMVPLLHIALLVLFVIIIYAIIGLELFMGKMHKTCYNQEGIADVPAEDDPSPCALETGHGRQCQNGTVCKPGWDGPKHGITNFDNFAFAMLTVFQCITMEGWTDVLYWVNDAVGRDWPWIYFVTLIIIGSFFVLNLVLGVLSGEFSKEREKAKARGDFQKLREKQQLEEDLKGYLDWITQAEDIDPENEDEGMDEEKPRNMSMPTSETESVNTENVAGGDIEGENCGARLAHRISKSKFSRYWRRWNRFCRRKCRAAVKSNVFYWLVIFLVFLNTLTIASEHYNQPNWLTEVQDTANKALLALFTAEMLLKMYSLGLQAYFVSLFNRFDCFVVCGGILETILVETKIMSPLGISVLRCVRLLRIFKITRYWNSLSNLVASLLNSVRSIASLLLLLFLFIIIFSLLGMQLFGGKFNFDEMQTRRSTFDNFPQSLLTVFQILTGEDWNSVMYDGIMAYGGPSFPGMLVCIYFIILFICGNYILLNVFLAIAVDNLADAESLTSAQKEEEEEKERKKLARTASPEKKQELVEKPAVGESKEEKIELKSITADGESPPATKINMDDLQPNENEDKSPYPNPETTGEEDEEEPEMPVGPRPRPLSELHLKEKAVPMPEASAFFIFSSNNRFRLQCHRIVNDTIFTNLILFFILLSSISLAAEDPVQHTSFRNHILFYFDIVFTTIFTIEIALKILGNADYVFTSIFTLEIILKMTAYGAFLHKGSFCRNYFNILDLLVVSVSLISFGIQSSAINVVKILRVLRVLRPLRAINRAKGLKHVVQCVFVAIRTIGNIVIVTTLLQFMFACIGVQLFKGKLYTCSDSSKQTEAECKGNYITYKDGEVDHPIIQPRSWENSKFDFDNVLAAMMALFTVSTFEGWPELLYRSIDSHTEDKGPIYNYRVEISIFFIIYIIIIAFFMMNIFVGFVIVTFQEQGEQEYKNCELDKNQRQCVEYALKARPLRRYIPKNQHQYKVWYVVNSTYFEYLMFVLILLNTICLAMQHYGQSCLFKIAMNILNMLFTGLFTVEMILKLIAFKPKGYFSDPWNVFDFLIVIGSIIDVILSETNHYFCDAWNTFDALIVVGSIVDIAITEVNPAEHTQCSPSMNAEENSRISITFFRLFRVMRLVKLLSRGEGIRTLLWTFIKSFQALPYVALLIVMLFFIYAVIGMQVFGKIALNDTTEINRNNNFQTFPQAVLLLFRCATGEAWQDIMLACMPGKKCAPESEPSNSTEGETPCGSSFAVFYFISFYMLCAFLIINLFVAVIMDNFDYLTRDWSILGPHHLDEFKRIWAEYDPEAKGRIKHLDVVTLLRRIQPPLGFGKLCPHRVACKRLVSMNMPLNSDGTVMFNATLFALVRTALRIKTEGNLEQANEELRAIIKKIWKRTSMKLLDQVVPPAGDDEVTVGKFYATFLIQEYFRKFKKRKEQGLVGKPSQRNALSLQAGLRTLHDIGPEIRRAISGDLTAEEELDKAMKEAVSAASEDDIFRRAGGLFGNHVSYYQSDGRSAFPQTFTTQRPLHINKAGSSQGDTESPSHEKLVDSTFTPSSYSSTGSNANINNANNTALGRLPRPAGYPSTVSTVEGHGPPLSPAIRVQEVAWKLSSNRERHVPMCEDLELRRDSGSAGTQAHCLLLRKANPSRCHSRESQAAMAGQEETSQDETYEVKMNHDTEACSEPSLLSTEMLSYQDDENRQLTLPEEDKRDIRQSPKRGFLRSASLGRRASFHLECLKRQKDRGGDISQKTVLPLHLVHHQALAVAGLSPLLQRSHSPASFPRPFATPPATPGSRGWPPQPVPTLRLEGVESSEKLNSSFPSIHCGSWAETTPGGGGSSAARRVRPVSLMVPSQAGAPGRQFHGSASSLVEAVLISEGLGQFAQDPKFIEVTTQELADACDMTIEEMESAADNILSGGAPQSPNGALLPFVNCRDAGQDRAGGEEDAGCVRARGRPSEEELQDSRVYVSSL
Chain of hCav1.2 (Q08289 whole entry partner): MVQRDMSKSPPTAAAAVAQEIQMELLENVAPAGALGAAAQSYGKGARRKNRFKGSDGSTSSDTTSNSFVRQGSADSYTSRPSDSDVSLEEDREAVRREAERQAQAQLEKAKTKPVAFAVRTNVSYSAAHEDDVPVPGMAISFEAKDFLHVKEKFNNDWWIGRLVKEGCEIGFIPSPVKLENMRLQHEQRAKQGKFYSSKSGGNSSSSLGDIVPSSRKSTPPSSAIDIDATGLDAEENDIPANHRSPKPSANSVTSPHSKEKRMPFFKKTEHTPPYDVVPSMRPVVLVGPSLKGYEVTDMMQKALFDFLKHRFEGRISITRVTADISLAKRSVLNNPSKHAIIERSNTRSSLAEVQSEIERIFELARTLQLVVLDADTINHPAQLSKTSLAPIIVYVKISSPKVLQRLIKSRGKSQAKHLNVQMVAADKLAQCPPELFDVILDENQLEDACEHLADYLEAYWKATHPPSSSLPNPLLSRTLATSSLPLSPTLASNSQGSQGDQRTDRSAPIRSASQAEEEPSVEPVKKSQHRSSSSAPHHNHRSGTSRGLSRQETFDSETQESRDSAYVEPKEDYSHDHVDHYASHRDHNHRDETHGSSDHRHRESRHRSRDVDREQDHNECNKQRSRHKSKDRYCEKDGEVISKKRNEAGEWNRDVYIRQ
Chain of hCav1.2 (P54289 25-946 partner limits assumed): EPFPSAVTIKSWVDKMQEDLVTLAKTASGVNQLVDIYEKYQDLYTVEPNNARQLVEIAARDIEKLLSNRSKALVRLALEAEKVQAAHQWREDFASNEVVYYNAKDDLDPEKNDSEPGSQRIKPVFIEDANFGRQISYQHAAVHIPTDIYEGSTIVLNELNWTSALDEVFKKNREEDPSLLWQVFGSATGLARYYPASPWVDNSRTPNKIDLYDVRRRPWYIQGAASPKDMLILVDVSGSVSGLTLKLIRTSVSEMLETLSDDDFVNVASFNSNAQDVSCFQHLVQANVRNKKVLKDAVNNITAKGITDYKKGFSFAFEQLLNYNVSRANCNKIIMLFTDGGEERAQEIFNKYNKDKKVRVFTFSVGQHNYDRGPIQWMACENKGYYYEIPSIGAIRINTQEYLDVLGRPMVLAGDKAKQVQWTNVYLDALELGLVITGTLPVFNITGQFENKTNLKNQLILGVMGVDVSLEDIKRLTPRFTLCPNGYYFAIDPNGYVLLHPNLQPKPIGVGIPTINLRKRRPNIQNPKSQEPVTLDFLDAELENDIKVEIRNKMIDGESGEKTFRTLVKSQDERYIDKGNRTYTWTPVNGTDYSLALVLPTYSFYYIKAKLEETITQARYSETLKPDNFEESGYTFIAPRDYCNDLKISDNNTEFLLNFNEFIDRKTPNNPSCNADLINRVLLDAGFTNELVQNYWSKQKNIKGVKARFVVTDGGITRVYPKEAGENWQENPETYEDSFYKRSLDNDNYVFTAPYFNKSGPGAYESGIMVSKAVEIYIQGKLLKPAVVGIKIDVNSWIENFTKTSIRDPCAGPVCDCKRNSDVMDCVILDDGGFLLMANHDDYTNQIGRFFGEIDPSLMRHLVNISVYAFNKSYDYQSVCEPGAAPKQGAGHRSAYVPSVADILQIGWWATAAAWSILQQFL
Chain of hCav1.2 (P54289 947-1103 partner limits assumed): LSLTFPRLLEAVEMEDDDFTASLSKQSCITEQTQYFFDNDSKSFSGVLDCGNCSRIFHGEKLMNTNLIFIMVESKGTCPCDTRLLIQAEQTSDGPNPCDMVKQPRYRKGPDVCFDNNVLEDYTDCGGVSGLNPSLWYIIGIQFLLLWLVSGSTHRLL

[8] = tested on: M. tb H37Rv; format: cell-based, Mycobacterium tuberculosis
[9] = VERO cell cytotoxicity; format: cell-based; conditions: African green monkey, VERO cells
Description: as §1

[10] = tested on: M. tb H37Rv; test: microbe, parasite or virus in culture; format: cell-based; conditions: Mycobacterium tuberculosis, read-out: M. tb H37Rv: MIC-LORA
[11] = target: hERG (Homo sapiens, UniProt Q12809); test: biochemical
Chain of hERG (Q12809 whole entry): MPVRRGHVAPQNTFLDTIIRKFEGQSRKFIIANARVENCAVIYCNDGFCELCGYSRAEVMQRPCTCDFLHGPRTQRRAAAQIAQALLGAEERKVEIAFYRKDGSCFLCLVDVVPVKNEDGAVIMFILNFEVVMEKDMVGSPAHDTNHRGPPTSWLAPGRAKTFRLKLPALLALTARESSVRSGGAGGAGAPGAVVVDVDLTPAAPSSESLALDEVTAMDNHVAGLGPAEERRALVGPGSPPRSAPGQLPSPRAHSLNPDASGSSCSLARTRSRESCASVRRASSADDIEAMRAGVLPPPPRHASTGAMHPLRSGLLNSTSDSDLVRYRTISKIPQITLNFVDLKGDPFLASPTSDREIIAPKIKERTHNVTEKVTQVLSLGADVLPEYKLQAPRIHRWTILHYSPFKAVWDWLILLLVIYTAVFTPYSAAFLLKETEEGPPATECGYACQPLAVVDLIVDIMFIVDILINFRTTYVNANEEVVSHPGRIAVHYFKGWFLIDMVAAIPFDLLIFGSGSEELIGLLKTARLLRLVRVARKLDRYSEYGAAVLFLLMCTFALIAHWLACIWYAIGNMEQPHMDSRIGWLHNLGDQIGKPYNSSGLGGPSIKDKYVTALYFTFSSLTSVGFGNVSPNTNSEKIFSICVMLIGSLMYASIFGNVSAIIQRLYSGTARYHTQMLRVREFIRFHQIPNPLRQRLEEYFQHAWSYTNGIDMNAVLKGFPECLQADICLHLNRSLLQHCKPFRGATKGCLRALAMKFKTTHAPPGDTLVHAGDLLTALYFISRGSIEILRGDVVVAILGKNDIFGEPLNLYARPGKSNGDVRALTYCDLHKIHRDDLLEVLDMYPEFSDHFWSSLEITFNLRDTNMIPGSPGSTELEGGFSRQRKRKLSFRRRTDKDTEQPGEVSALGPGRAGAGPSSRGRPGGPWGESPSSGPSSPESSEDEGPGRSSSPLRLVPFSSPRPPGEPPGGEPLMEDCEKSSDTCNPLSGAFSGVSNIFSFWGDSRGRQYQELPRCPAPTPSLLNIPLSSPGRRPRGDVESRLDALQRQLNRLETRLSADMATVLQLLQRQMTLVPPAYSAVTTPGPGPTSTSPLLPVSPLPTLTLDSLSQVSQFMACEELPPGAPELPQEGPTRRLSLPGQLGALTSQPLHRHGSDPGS

[12] = QTc (QTcV) prolongation in dogs after oral dosing, with plasma level at 1 hr; conditions: dogs
[13] = Table 3, read-out: hNav1.5 Late IC50

Structure (SMILES): Cc1cc(C)c2cc(C(=O)NC3CC[Si](C)(C)C3)[nH]c2c1 (single isomer, unassigned) [MPL-296A]
- M. tb H37Rv: MIC-MABA [1]: 0.0007- μg/mL
- VERO Cell: Cytotoxicity-IC50 [2]: >64 µg/mL
- M. ab_ATCC: MIC MHII: MIC [3]: <0.063 µg/mL

Structure (SMILES): C[Si]1(C)CCC(NC(=O)c2cc3c(F)cc(F)cc3[nH]2)CC1 [MPL-204, N-(1,1-dimethylsilinan-4-yl)-4,6-difluoro-1H-indole-2-carboxamide]
- hKCNQ1 channel inhibition [4]: do not inhibit the hKCNQ1 channel
- IC50 ([4]; Table 3): 7.56 µM
- IC50 ([5]; Table 3): > 10 µM
- IC50 [6, 13]: > 10 µM
- IC50 ([7]; Table 3): > 10 µM
- MIC [8]: 0.003 µg/mL (≈ 0.0093 µM)
- MIC [1]: 0.0035 µg/mL (≈ 0.0109 µM)
- IC50 [9]: > 32 µg/mL
- MIC [10]: > 32 µg/mL
- MIC [3]: > 64 µg/mL
- IC50 ([11]; hERG IC50, Table 3): > 10 µM

Structure (SMILES): C[Si]1(C)CCC(NC(=O)c2cc3c(Cl)cc(Cl)cc3[nH]2)CC1 [MPL-203, 4,6-dichloro-N-(1,1-dimethylsilinan-4-yl)-1H-Indole-2-carboxamide]
- hKCNQ1 channel inhibition [4]: do not inhibit the hKCNQ1 channel
- IC50 ([4]; Table 3): 2.71 µM
- IC50 ([5]; Table 3): > 10 µM
- IC50 [6, 13]: > 10 µM
- IC50 ([7]; Table 3): > 10 µM
- MIC [8]: 0.003 µg/mL (≈ 0.00844 µM)
- MIC [1]: 0.0033 µg/mL (≈ 0.00929 µM)
- IC50 [9]: > 32 µg/mL
- MIC [10]: > 32 µg/mL
- MIC [3]: > 64 µg/mL
- IC50 ([11]; hERG IC50, Table 3): > 10 µM

Structure (SMILES): Cc1cc(C)c2cc(C(=O)NC3CC[Si](C)(C)C3)[nH]c2c1 (single isomer, unassigned) [MPL-296B]
- M. tb H37Rv: MIC-MABA [1]: 0.052- μg/mL
- VERO Cell: Cytotoxicity-IC50 [2]: >64 µg/mL
- M. ab_ATCC: MIC MHII: MIC [3]: 0.5 µg/mL

Structure (SMILES): CC1(C)CCC(NC(=O)c2cc3c(F)cc(F)cc3[nH]2)CC1 [NITD-349]
- IC50 [4]: 0.058 µM
- IC50 [5]: > 10 µM
- IC50 ([6]; read-out: hNav1.05 Late IC50): > 10 µM
- IC50 ([6]; read-out: hNav1.5 Late IC50): > 10 µM
- IC50 ([7]; Table 2): 9.53 µM
- IC50 ([7]; Table 3): 9.5 µM
- IC50 ([11]; hERG IC50, Table 2): > 10 µM
- IC50 ([11]; hERG IC50, Table 3): > 10 µM
- IC50 ([11]; hERG IC50, stated in text): > 50 µM
- corrected QT (QTc) prolongation in dogs [12]: dramatic corrected QT (QTc) prolongation
- Max. QTcv ([12]; 50 mg/kg, PO): 170 ms
- C1 hr ([12]; 50 mg/kg, PO, 1 hr): 790 ng/mL
- QTcV @ 1 hr ([12]; 50 mg/kg, PO, 1 hr): 11 ms
- Max. QTcv ([12]; 150 mg/kg, PO): 170 ms
- QTcV @ 1 hr ([12]; 150 mg/kg, PO, 1 hr): 13.6 ms
